Patent publication EP4603105A1, “PHARMACEUTICAL COMPOSITION CONTAINING CYCLIC COMPOUND HAVING SELECTIVE KRAS INHIBITORY EFFECT AGAINST HRAS AND NRAS” (CHUGAI SEIYAKU KABUSHIKI KAISHA, priority 2022, dated 2024)
Where two headings read alike, the source gives them in different places.

What was measured:
HRAS wild-type protein = HRAS wild-type protein (Homo sapiens, UniProt P01112); assay: Binding to HRAS by surface plasmon resonance (SPR), KD and KD ratio to KRAS
In short: (§1)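 Captured GDP-RAS (~100–300 RU) was exposed to increasing compound concentrations, 75 s per step, in running buffer with 10 µM GDP, 10 mM MgCl2 and 4% DMSO at pH 7.4.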

[1] = test system: human lung cancer strain NCI-H441; assay: NCI-H441 cell proliferation inhibitory activity (CellTiter-Glo, 4 days); type: cell-based; conditions: read-out: NCl-H441 IC50
In short: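 Step one: dispense the test compound in serial DMSO dilutions. Step three: add the reagent and measure […].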

[2] = biological target: GDP-bound NRAS wild-type protein (Homo sapiens, UniProt P01111); assay: Binding to NRAS by surface plasmon resonance (SPR), KD and KD ratio to KRAS
In short: as §1

[3] = biological target: GDP-bound KRAS wild-type protein (Homo sapiens, UniProt P01116); assay: Binding to KRAS by surface plasmon resonance (SPR), dissociation constant KD
In short: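 GDP-bound biotin-Avi RAS captured at ~100–300 RU, 30°C, pH 7.4 HBS containing 10 µM GDP, 10 mM MgCl2, 1 mM DTT, 0.01% Tween 20 and 4% DMSO. KD by 1:1 fitting.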

[4] = ratio of KD for HRAS wild-type protein to KD for KRAS
[5] = ratio of KD for GDP-bound NRAS wild-type protein to KD for KRAS
[6] = ratio of KD with respect to HRAS wild-type protein to KD with respect to KRAS
[7] = 50% proliferation inhibitory concentration, four days
[8] = ratio of KD with respect to GDP-bound NRAS wild-type protein to KD with respect to KRAS
[9] = Single Cycle Kinetics, 1:1 binding model

Sequence of GDP-bound NRAS wild-type protein (P01111 whole entry): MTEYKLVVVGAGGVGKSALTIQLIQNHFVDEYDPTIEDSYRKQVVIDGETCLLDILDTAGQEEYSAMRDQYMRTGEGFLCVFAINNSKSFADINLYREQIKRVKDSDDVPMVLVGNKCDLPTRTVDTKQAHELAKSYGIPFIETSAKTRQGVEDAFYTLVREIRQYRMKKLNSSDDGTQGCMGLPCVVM
Sequence of HRAS wild-type protein (P01112 whole entry): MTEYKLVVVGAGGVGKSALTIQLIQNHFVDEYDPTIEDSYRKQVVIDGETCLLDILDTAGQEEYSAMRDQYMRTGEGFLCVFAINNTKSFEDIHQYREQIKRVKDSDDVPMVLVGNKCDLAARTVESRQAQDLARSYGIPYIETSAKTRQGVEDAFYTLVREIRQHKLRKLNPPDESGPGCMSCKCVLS
Sequence of GDP-bound KRAS wild-type protein (P01116 1-188 isoform P01116-2): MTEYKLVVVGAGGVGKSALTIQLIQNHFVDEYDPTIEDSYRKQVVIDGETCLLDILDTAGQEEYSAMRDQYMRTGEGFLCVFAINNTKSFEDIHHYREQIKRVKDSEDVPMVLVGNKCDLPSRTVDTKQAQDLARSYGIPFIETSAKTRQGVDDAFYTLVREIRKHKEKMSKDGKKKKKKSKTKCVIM

IC50 ([1]; NCI-H441 cells, 4 days) [nM] | Kd ([3]; Single Cycle Kinetics) [nM] | IC50 [1, 7] [nM] | Kd [3, 9] [nM] | Kd ([3]; 1:1 binding model) [nM] | Structure (SMILES) | HRAS /KRAS (HRAS wild-type protein; [4]) | NRAS /KRAS [2, 5] | HRAS /KRAS (HRAS wild-type protein; [6]) | NRAS /KRAS [2, 8]
2.8 | 0.1 | – | – | – | C#CC[C@H]1C(=O)N[C@@H]([C@@H](C)CC)C(=O)N(C2CC2)CC(=O)N(C)[C@H]2C/C=C\CCN(C2=O)[C@@H](Cc2ccc(C)cc2)C(=O)N(C)CC(=O)N[C@@H](CCc2cc(F)c(C(F)(F)F)c(F)c2)C(=O)N2C[C@H](OCC)C[C@H]2C(=O)N(C)C2(CCC2)C(=O)N(C)[C@@H](C2CCCC2)C(=O)N(C)[C@H](C(=O)N(C)C)CC(=O)N1C [PP3250] | B (a compound having 3 or more and less than 10 is denoted as B) | A (a compound having 10 or more and less than 20 is denoted as A) | – | –
– | – | 18.2 | 0.19 | – | CCO[C@@H]1C[C@H]2C(=O)NC3(CCC3)C(=O)N(C)[C@@H](C3CCCC3)C(=O)N(C)[C@H](C(=O)N3CCOCC3)CC(=O)N(C)[C@@H](CC3CCCC3)C(=O)N[C@@H]([C@@H](C)CC)C(=O)N(C)CC(=O)N(C)[C@H]3C/C=C\CCN(C3=O)[C@@H](Cc3ccc(C(F)(F)F)cc3)C(=O)N(C)CC(=O)N[C@@H](CCc3cc(F)c(C(F)(F)F)c(F)c3)C(=O)N2C1 [PP1393] | – | – | A (a compound having 10 or more and less than 20 is denoted as A) | A (a compound having 10 or more and less than 20 is denoted as A)
8.6 | – | – | – | 0.31 | CCOC[C@H]1C(=O)N[C@@H]([C@@H](C)CC)C(=O)N(C)CC(=O)N(C)[C@H]2C/C=C\CCN(C2=O)[C@@H](Cc2ccc(C)cc2)C(=O)N(C)CC(=O)N[C@@H](CCc2ccc(C(F)(F)F)c(OC)c2)C(=O)N2C[C@@H](C)C[C@H]2C(=O)NC2(CC(C)(C)C2)C(=O)N(C)[C@@H](C2CCCC2)C(=O)N(C)[C@H](C(=O)N(CC)CC)CC(=O)N1C [PP2405] | A (a compound having 10 or more and less than 20 is denoted as A) | A (a compound having 10 or more and less than 20 is denoted as A) | – | –
13.6 | 0.19 | – | – | – | CCC[C@H]1C(=O)N[C@@H](C2CCCC2)C(=O)N(C)CC(=O)N(C)[C@H]2C/C=C\CCN(C2=O)[C@@H](Cc2ccc(C)cc2)C(=O)N(C)CC(=O)N[C@@H](CCc2ccc(C(F)(F)F)c(Cl)c2)C(=O)N2CC3(CC3)C[C@H]2C(=O)NC2(CCC2)C(=O)N(C)[C@@H](C2CCCC2)C(=O)N(C)[C@H](C(=O)N(C)C)CC(=O)N1C [PP3444] | A (a compound having 10 or more and less than 20 is denoted as A) | AA (a compound having 20 or more is denoted as AA) | – | –
4.5 | – | – | – | 0.048 | CCC[C@H]1C(=O)N[C@@H]([C@@H](C)CC)C(=O)N(C2CC2)CC(=O)N(C)[C@H]2C/C=C\CCN(C2=O)[C@@H](Cc2ccc(C)cc2)C(=O)N(C)CC(=O)N[C@@H](CCc2ccc(C(F)(F)F)c(OC)c2)C(=O)N2C[C@@H](C)C[C@H]2C(=O)N(C)C2(CCC2)C(=O)N(C)[C@@H](C2CCCC2)C(=O)N(C)[C@H](C(=O)N(C)C)CC(=O)N1C [PP2366] | A (a compound having 10 or more and less than 20 is denoted as A) | A (a compound having 10 or more and less than 20 is denoted as A) | – | –
– | – | 85.8 | 0.92 | – | CCO[C@@H]1C[C@H]2C(=O)NC3(CCC3)C(=O)N(C)[C@@H](C3CCCC3)C(=O)N(C)[C@H](C(=O)N(C)C)CC(=O)N(C)[C@@H](CC(C)C)C(=O)N[C@@H]([C@@H](C)CC)C(=O)N(C)CC(=O)N(C)[C@H]3C/C=C\CCN(C3=O)[C@@H](Cc3ccc(F)cc3C)C(=O)N(C)CC(=O)N[C@@H](CCc3ccc(Cl)c(Cl)c3)C(=O)N2C1 [PP1480] | – | – | B (a compound having 3 or more and less than 10 is denoted as B) | A (a compound having 10 or more and less than 20 is denoted as A)
124 | – | – | – | 2.9 | CCC[C@H]1C(=O)N[C@@H](CC(C)C)C(=O)N(CC)CC(=O)N(C)[C@H]2C/C=C\CCN(C2=O)[C@@H](Cc2ccc(C)cc2)C(=O)N(C)CC(=O)N[C@@H](CCc2cc(F)c(C(F)(F)F)c(F)c2)C(=O)N2C[C@H](OCC)C[C@H]2C(=O)NC2(CC(C)(C)C2)C(=O)N(C)[C@@H](C2CCCC2)C(=O)N(C)[C@H](C(=O)N(C)C)CC(=O)N1C [PP2516] | B (a compound having 3 or more and less than 10 is denoted as B) | A (a compound having 10 or more and less than 20 is denoted as A) | – | –
9.2 | 1.3 | – | – | – | CCC[C@H]1C(=O)N[C@@H](C2CCCC2)C(=O)N(C)CC(=O)N(C)[C@H]2C/C=C\CCN(C2=O)[C@@H](Cc2ccc(C(F)(F)F)cc2)C(=O)N(C)CC(=O)N[C@@H](CCc2ccc(C(F)(F)F)c(Cl)c2)C(=O)N2CC3(CC3)C[C@H]2C(=O)N(C)C2(CCC2)C(=O)N(C)[C@@H]([C@@H](C)CC)C(=O)N(C)[C@H](C(=O)N(C)C)CC(=O)N1C [PP3323] | A (a compound having 10 or more and less than 20 is denoted as A) | AA (a compound having 20 or more is denoted as AA) | – | –
– | – | 117 | 1.2 | – | CCO[C@@H]1C[C@H]2C(=O)NC3(CCC3)C(=O)N(C)[C@@H](C(CC)CC)C(=O)N(C)[C@H](C(=O)N(C)C)CC(=O)N(C)[C@@H](CC)C(=O)N[C@@H]([C@@H](C)CC)C(=O)N(C)CC(=O)N(C)[C@H]3C/C=C\CCN(C3=O)[C@@H](Cc3ccc(C(F)(F)F)cc3)C(=O)N(C)CC(=O)N[C@@H](CCc3ccc4sccc4c3)C(=O)N2C1 [PP1223] | – | – | A (a compound having 10 or more and less than 20 is denoted as A) | AA (a compound having 20 or more is denoted as AA)
15.6 | 0.24 | – | – | – | CCC[C@H]1C(=O)N[C@@H]([C@@H](C)CC)C(=O)N(C)CC(=O)N(C)[C@H]2C/C=C\CCN(C2=O)[C@@H](Cc2ccc(C(F)(F)F)cc2)C(=O)N(C)CC(=O)N[C@@H](CCc2ccc(C(F)(F)F)c(OC)c2)C(=O)N2CC3(CC3)C[C@H]2C(=O)NC2(CCC2)C(=O)N(C)[C@@H]([C@@H](C)CC)C(=O)N(C)[C@H](C(=O)N(C)C)CC(=O)N1C [PP3410] | A (a compound having 10 or more and less than 20 is denoted as A) | AA (a compound having 20 or more is denoted as AA) | – | –
21.9 | – | – | – | 0.67 | CCC[C@H]1C(=O)N[C@@H]([C@@H](C)CC)C(=O)N(C)CC(=O)N(C)[C@H]2C/C=C\CCN(C2=O)[C@@H](CC2CCC(F)(F)CC2)C(=O)N(C)CC(=O)N[C@@H](CCc2ccc(C(F)(F)F)c(Cl)c2)C(=O)N2C[C@H](OCC)C[C@H]2C(=O)NC2(CC(C)(C)C2)C(=O)N(C)[C@@H](C(CC)CC)C(=O)N(C)[C@H](C(=O)N(C)C)CC(=O)N1C [PP2498] | A (a compound having 10 or more and less than 20 is denoted as A) | A (a compound having 10 or more and less than 20 is denoted as A) | – | –
12.2 | 0.61 | – | – | – | CCCO[C@@H]1C[C@H]2C(=O)NC3(CC(C)(C)C3)C(=O)N(C)[C@@H](C3CCCC3)C(=O)N(C)[C@H](C(=O)N(C)CC)CC(=O)N(C)[C@@H](COCC)C(=O)N[C@@H]([C@@H](C)CC)C(=O)N(C3CC3)CC(=O)N(C)[C@H]3C/C=C\CCN(C3=O)[C@@H](Cc3ccc(C(F)(F)F)cc3)C(=O)N(C)CC(=O)N[C@@H](CCc3cc(F)c(C(F)(F)F)c(F)c3)C(=O)N2C1 [PP3470] | A (a compound having 10 or more and less than 20 is denoted as A) | A (a compound having 10 or more and less than 20 is denoted as A) | – | –
– | – | 16.5 | 0.12 | – | CC[C@H](C)[C@@H]1NC(=O)[C@H](CC)N(C)C(=O)C[C@@H](C(=O)N(C)C)N(C)C(=O)[C@H](C2CCCC2)N(C)C(=O)C2(CCCC2)NC(=O)[C@@H]2CCCN2C(=O)[C@H](CCc2cc(F)c(C(F)(F)F)c(F)c2)NC(=O)CN(C)C(=O)[C@H](Cc2ccc(C(F)(F)F)cc2)N2CC/C=C\C[C@@H](C2=O)N(C)C(=O)CN(C)C1=O [PP1273] | – | – | B (a compound having 3 or more and less than 10 is denoted as B) | A (a compound having 10 or more and less than 20 is denoted as A)
– | – | 23.5 | 0.16 | – | CCO[C@@H]1C[C@H]2C(=O)NC3(CCC3)C(=O)N(C)[C@@H](C3CCCC3)C(=O)N(C)[C@H](C(=O)N3CCOCC3)CC(=O)N(C)[C@@H](C)C(=O)N[C@@H]([C@@H](C)CC)C(=O)N(C)CC(=O)N(C)[C@H]3CCCCCN(C3=O)[C@@H](Cc3ccc(F)cc3)C(=O)N(C)CC(=O)N[C@@H](CCc3cc(F)c(C(F)(F)F)c(F)c3)C(=O)N2C1 [PP1175] | – | – | B (a compound having 3 or more and less than 10 is denoted as B) | B (a compound having 3 or more and less than 10 is denoted as B)
– | – | 29.9 | 0.21 | – | CCO[C@@H]1C[C@H]2C(=O)NC3(CCC3)C(=O)N(C)[C@@H](C(CC)CC)C(=O)N(C)[C@H](C(=O)N(C)C)CC(=O)N(C)[C@@H](CC)C(=O)N[C@@H]([C@@H](C)CC)C(=O)N(C)CC(=O)N(C)[C@H]3C/C=C\CCN(C3=O)[C@@H](Cc3ccc(C(F)(F)F)cc3)C(=O)N(C)CC(=O)N[C@@H](CCc3ccc(C(F)(F)F)c(OC)c3)C(=O)N2C1 [PP1207] | – | – | A (a compound having 10 or more and less than 20 is denoted as A) | AA (a compound having 20 or more is denoted as AA)
